For eight compounds, IC50 results are on record in ChEMBL document CHEMBL1137822 (J Med Chem, 2004).

The structures appear in SMILES notation.

The target in assay [1] is Cholinesterase (Homo sapiens, UniProt P06276). The assay can be described thus: Inhibitory concentration against human serum butyrylcholinesterase activity.
In assay [2] the target is Acetylcholinesterase (Homo sapiens, UniProt P22303). In words: Inhibitory concentration against human serum acetylcholinesterase activity.
Acetylcholinesterase, sequence (P22303 whole entry): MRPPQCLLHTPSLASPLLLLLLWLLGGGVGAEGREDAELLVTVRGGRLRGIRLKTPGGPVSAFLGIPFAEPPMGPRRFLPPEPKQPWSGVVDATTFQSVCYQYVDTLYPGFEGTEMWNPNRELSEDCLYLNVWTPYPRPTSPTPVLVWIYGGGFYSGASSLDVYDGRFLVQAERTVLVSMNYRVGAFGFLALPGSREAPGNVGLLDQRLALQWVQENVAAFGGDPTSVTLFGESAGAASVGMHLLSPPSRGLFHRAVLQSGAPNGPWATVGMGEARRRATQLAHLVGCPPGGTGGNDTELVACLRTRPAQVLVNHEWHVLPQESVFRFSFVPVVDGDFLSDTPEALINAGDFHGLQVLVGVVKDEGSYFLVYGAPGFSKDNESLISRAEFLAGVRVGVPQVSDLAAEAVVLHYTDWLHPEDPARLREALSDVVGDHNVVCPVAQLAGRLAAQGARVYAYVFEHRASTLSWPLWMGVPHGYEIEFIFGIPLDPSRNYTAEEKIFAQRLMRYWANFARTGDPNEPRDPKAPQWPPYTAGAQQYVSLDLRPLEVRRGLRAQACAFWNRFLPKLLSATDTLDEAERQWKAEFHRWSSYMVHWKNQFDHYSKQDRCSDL

Cholinesterase, sequence (P06276 whole entry): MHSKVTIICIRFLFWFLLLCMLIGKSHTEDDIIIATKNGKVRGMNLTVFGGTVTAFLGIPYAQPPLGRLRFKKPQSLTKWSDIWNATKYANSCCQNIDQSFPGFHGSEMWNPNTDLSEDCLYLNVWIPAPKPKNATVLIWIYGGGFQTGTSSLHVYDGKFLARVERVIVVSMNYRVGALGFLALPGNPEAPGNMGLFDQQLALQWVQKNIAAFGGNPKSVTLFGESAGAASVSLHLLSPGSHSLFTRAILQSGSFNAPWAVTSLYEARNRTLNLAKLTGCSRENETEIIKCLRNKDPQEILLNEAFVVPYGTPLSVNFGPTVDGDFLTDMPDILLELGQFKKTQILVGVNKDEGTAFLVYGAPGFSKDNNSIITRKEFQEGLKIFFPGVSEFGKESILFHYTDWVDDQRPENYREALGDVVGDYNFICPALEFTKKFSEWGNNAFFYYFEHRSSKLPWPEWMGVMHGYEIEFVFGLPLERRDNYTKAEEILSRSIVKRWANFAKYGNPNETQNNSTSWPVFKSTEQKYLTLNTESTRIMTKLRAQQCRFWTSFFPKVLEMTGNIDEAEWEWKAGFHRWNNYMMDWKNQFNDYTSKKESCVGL

The term IC50 denotes the midpoint of a concentration-inhibition curve. The low end stands for greater potency in that assay, the high end for weaker potency in that assay. For the compound `CNC(=O)Oc1cccc2c1SCC1CCN(C)C21` (centres undefined), the values for the IC50 in assay [1] and in assay [2] were 10.5 nM and 8.11 nM, respectively. In the same order, the values of `CCNC(=O)Oc1cccc2c1CCC1CCN(C)C21` (centres undefined) are 30.3 nM and 393 nM. As to `CNC(=O)Oc1cccc(C(C)N(C)C)c1` (centres undefined), the half-maximal inhibitory concentration (IC50) in assay [1] is 406 nM. As to `CNC(=O)Oc1cccc2c1OCC1CCN(C)C21` (centres undefined), the values for the IC50 in assay [1] and in assay [2] were 59.4 nM and 30 nM, respectively. In the same order, the values of `CCCCCCCNC(=O)Oc1cccc2c1OCC1CCN(C)C21` (centres undefined) are 1.26 nM and 20.3 nM. In the same order, the values of `CCNC(=O)Oc1cccc2c1OCC1CCN(C)C21` (centres undefined) are 44.4 nM and 420 nM.

On to `CNC(=O)Oc1cccc2c1CCC1CCN(C)C21` (centres undefined), for which the half-maximal inhibitory concentration (IC50) is 24.5 nM in assay [1] and 17.3 nM in assay [2].

`CC(NC(=O)Oc1cccc2c1OCC1CCN(C)C21)c1ccccc1` (centres undefined) showed an IC50 in assay [1] of 209 nM.
